Target: T1, human S1P3 receptor (Homo sapiens, UniProt Q99500)
T1 construct: expressed in transfected cells
Experiment: S1P3 FLIPR Ca2+ assay in T24 cells stably expressing the human S1P3 receptor
Assay type: cell-based
Settings: for IC50: tested over 0.61 nM to 10,000 nM, read-out: IC50, activity potency human S1P3 receptor from FLIPR
Protocol: The compounds of the invention were tested for S1P3 activity using the Flipr assay. The compounds may be assessed for ability to activate or block activation of the human S1P3 receptor in T24 cells stably expressing the human S1P3 receptor. Ten thousand cells/well are plated into 384-well poly-D-lysine coated plates one day prior to use. The growth media for the S1P3 receptor expressing cell line McCoy's 5A medium supplemented with 10% charcoal-treated fetal bovine serum (FBS), 1% antibiotic-antimycotic and 400 μg/mL genetecin. On the day of the experiment, the cells are washed twice Hank's Balanced Salt Solution supplemented with 20 mM HEPES (HBSS/Hepes buffer). The cells are then dye loaded with 2 μM Fluo-4 diluted in the HBSS/Hepes buffer with 1.25 mM Probenecid and incubated at 37° C. for 40 minutes. Extracellular dye is removed by washing the cell plates four times prior to placing the plates in the FLIPR (Fluorometric Imaging Plate Reader, Molecular Devices). Ligands are diluted in HBSS/Hepes buffer and prepared in 384-well microplates. The positive control, Sphingosine-1-phosphate (SIP), is diluted in HBSS/Hepes buffer with 4 mg/mL fatty acid free bovine serum albumin. The FLIPR transfers 12.5 μL from the ligand microplate to the cell plate and takes fluorescent measurements for 75 seconds, taking readings every second, and then for 2.5 minutes, taking readings every 10 seconds. Drugs are tested over the concentration range of 0.61 nM to 10,000 nM. Data for Ca^+2 responses are obtained in arbitrary fluorescence units and not translated into Ca^+2 concentrations. IC50 values are determined through a […] analysis using the Levenburg Marquardt algorithm.

T1 sequence (Q99500 whole entry): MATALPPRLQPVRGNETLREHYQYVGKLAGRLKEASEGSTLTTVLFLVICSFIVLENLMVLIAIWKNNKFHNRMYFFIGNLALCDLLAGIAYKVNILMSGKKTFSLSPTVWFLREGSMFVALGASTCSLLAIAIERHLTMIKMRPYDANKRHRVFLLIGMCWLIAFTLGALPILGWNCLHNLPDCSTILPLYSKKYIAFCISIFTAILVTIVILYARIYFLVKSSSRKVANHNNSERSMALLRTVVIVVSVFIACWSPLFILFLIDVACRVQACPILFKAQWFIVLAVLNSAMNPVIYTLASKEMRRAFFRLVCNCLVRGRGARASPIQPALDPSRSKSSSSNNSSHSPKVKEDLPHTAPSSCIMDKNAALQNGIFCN

Row | % Antagonism, human S1P3 receptor from FLIPR | IC50 | SMILES
1 | 96% | 28 nM | O=C(NC(Nc1ccc(Cl)cc1)C(Cl)(Cl)Cl)c1ccc(Br)cc1 (stereo not drawn) [4-bromo-N-(2,2,2-trichloro-1-(4-chlorophenylamino)ethyl)benzamide]
2 | 97% | 148 nM | O=C(NC(Nc1ccccc1)C(Cl)(Cl)Cl)c1ccc(Br)cc1 (stereo not drawn)
3 | 99% | 1.4 nM | O=C(NC(Nc1ccc(Cl)cc1)C(Cl)(Cl)Cl)c1ccc(Br)cn1 (single isomer, unassigned; (-)) [(−)-5-bromo-N-(2,2,2-trichloro-1-(4-chlorophenylamino)ethyl)picolinamide]
4 | 99% | 1650 nM | O=C(NC(Nc1ccc(Cl)cc1)C(F)(F)Cl)c1ccc(Br)cn1 (stereo not drawn) [5-Bromo-N-(2-chloro-1-(4-chlorophenylamino)-2,2-difluoroethyl)picolinamide]
5 | 56% | 1410 nM | O=C(NC(Nc1ccccc1C(F)(F)F)C(Cl)(Cl)Cl)c1ccco1 (stereo not drawn)
6 | 100% | 363 nM | O=C(NC(Nc1cccc(F)c1)C(Cl)(Cl)Cl)c1ccco1 (stereo not drawn) [N-{2,2,2-trichloro-1-[(3-fluorophenyl)amino]ethyl}-2-furamide]
7 | 76% | 1140 nM | Cc1ccc(C(=O)NC(Nc2ccc(Cl)cc2)C(Br)(Br)Br)cc1 (stereo not drawn)
8 | 98% | 291 nM | O=C(NC(Nc1ccc(Cl)c(F)c1)C(Cl)(Cl)Cl)c1ccco1 (stereo not drawn) [Furan-2-carboxylic acid (2,2,2-trichloro-1-(4-chloro-3-fluoro-phenylamino)-ethyl)-amide]
9 | 91% | 1450 nM | O=C(NC(Nc1ccc(Br)cc1)C(Cl)(Cl)Cl)c1ccc([N+](=O)[O-])cc1 (stereo not drawn)
10 | 90% | 9.5 nM | O=C(NC(Nc1ccc(Cl)cc1)C(Cl)(Cl)Cl)c1cc(Br)co1 (stereo not drawn) [4-bromo-N-(2,2,2-trichloro-1-(4-chlorophenylamino)ethyl)furan-2-carboxamide]
11 | 98% | 365 nM | O=C(NC(Nc1ccc(Br)cc1)C(Cl)(Cl)Cl)c1ccco1 (stereo not drawn)
12 | 100% | 454 nM | Cc1ccc(NC(NC(=O)c2ccco2)C(Cl)(Cl)Cl)cc1 (stereo not drawn) [Furan-2-carboxylic acid (2,2,2-trichloro-1-p-tolylamino-ethyl)-amide]
13 | 100% | 98 nM | O=C(NC(Nc1ccc(Cl)cc1)C(Br)(Br)Br)c1ccc(Br)cc1 (stereo not drawn) [4-bromo-N-(2,2,2-tribromo-1-(4-chlorophenylamino)ethyl)benzamide]
14 | 96% | 278 nM | COc1ccc(C(=O)NC(Nc2ccc(Cl)cc2)C(Cl)(Cl)Cl)cc1 (stereo not drawn)
15 | 99% | 430 nM | Cc1cc(NC(NC(=O)c2ccco2)C(Cl)(Cl)Cl)ccc1F (stereo not drawn) [N-{2,2,2-trichloro-1-[(4-fluoro-3-methylphenyl)amino]ethyl}-2-furamide]
16 | 93% | 1370 nM | O=C(NC(Nc1ccc([N+](=O)[O-])cc1)C(Cl)(Cl)Cl)c1ccc(Cl)cc1 (stereo not drawn)
17 | 95% | 256 nM | O=C(NC(Nc1ccc(Cl)cc1)C(Cl)(Cl)Cl)c1ccc(F)c(F)c1 (stereo not drawn) [3,4-difluoro-N-(2,2,2-trichloro-1-(4-chlorophenylamino)ethyl)benzamide]
18 | 100% | 2990 nM | O=C(NC(Nc1ccc(Cl)cc1)C(F)(F)F)c1ccc(Br)cc1 (stereo not drawn) [4-bromo-N-[1-(4-chlorophenylamino)-2,2,2-trifluoro-ethyl]-benzamide]

Row | % Antagonism, human S1P3 receptor from FLIPR | IC50 | SMILES
19 | 98% | 6.3 nM | O=C(NC(Nc1ccc(Cl)cc1)C(Cl)(Cl)Cl)c1ccc(Cl)cn1 (stereo not drawn) [5-Chloro-N-(2,2,2-trichloro-1-(4-chlorophenylamino)ethyl)picolinamide]
20 | 98% | 270 nM | O=C(NC(Nc1ccc(Cl)cc1)C(Cl)(Cl)Cl)c1ccco1 (stereo not drawn) [N-{2,2,2-trichloro-1-[(4-chlorophenyl)amino]ethyl}-2-furamide]
21 | 100% | 73 nM | Cc1ccc(NC(NC(=O)c2ccc(Br)cc2)C(Cl)(Cl)Cl)cc1 (stereo not drawn) [4-bromo-N-(2,2,2-trichloro-1-(p-tolylamino)ethyl)benzamide]
22 | 95% | 1180 nM | Cc1cc(F)ccc1NC(NC(=O)c1ccco1)C(Cl)(Cl)Cl (stereo not drawn) [N-{2,2,2-trichloro-1-[(4-fluoro-2-methylphenyl)amino]ethyl}-2-furamide]
23 | 99% | 498 nM | O=C(NC(Nc1ccc(F)cc1)C(Cl)(Cl)Cl)c1ccco1 (stereo not drawn) [N-{2,2,2-trichloro-1-[(4-fluorophenyl)amino]ethyl}-2-furamide]
24 | 99% | 2 nM | O=C(NC(Nc1ccc(Cl)cc1)C(Cl)(Cl)Cl)c1ccc(Br)cn1 (stereo not drawn) [5-bromo-N-(2,2,2-trichloro-1-(4-chlorophenylamino)ethyl)picolinamide]
25 | 99% | 4.7 nM | O=C(NC(Nc1ccc(Cl)cc1)C(F)(F)F)c1ccc(Br)cn1 (stereo not drawn) [5-Bromo-N-(1-(4-chlorophenylamino)-2,2,2-trifluoroethyl)picolinamide]
26 | 96% | 16 nM | O=C(NC(Nc1ccc(Cl)cc1)C(Cl)(Cl)Cl)c1ccc(Br)cc1 (single isomer, unassigned; (-)) [(−)-4-bromo-N-(2,2,2-trichloro-1-(4-chlorophenylamino)ethyl)benzamide]
27 | 98% | 466 nM | COc1ccc(C(=O)NC(Nc2ccc(C)cc2)C(Cl)(Cl)Cl)cc1 (stereo not drawn)
28 | 95% | 110 nM | O=C(NC(Nc1ccc(Cl)c(F)c1)C(Cl)(Cl)Cl)c1ccc(Br)cc1 (stereo not drawn) [4-bromo-N-[2,2,2-trichloro-1-(4-chloro-3-fluoro-phenylamino)-ethyl]-benzamide]
29 | 95% | 711 nM | O=C(NC(Nc1ccc(Cl)cc1)C(Cl)(Cl)Cl)c1ccc(Br)o1 (stereo not drawn) [5-bromo-furan-2-carboxylic acid (2,2,2-trichloro-1-(4-chloro-phenylamino)-ethyl)-amide]
30 | 94% | 492 nM | COc1ccc(NC(NC(=O)c2ccc(Br)cc2)C(Cl)(Cl)Cl)cc1 (stereo not drawn)
31 | 100% | 145 nM | O=C(NC(Nc1ccc(Cl)cc1)C(Cl)(Cl)Cl)c1ccc(Cl)cc1 (stereo not drawn) [4-chloro-N-(2,2,2-trichloro-1-(4-chlorophenylamino)ethyl)benzamide]
32 | 102% | 1400 nM | Cc1ccc(NC(NC(=O)c2ccco2)C(Cl)(Cl)Cl)c(F)c1 (stereo not drawn) [N-{2,2,2-trichloro-1-[(2-fluoro-4-methylphenyl)amino]ethyl}-2-furamide]
33 | 97% | 245 nM | O=C(NC(Nc1ccc(Cl)cc1)C(Cl)(Cl)Cl)c1ccc(Br)nc1 (stereo not drawn) [6-bromo-N-(2,2,2-trichloro-1-(4-chlorophenylamino)ethyl)nicotinamide]
34 | 41% | 1470 nM | Cc1cccc(C)c1NC(NC(=O)c1ccco1)C(Cl)(Cl)Cl (stereo not drawn) [N-{2,2,2-trichloro-1-[(2,6-dimethylphenyl)amino]ethyl}-2-furamide]
35 | 94% | 1520 nM | O=C(NC(Nc1ccc(Cl)cc1)C(Cl)(Cl)Cl)c1cccc(Cl)c1 (stereo not drawn)
36 | 98% | 1100 nM | O=C(NC(Nc1ccccc1F)C(Cl)(Cl)Cl)c1ccco1 (stereo not drawn) [N-{2,2,2-trichloro-1-[(2-fluorophenyl)amino]ethyl}-2-furamide]
